Measurements reported in US11420922B2, “Hydroxylated tropolone inhibitors of nucleotidyl transferases in herpesvirus and Hepatitis B and uses therefor” (Saint Louis University, priority 2015, dated 2022).
Read-outs that look alike come from different tables or passages of the source.

Experiments:
HSV-1 = assay: Anti-HSV-1 replication assay in Vero cells, titers by plaque assay; format: cell-based, herpes simplex virus 1; settings: Human alphaherpesvirus 1, Vero; for log reduction at 5 µM / log reduction at 50 µM: 24 h; for log reduction at 5 µM: read-out: HSV-1 Log suppression 5 μM; for log reduction at 50 µM: read-out: HSV-1 Log suppression 50 μM; for log reduction at 1.5 µM: read-out: HSV-1 Log suppression 1.5 μM
Experimental: Vero cells were maintained in Dulbecco's modified Eagle's medium (DMEM) containing 3% newborn calf serum, 3% bovine growth serum, 2 mM L-glutamine and 100 IU/mL penicillin and 0.1 mg/mL streptomycin (P/S). HSV-1 #6 and HSV-2 #1 are de-identified clinical isolates from the Saint Louis University Hospital. Stocks were prepared after a single passage in cell culture and were titered by standard plaque assay (Knipe and Spang, 1982). Wild-type HSV-2 used in FIG. 3 was laboratory strain 333. […] Virus stocks were grown and titered on Vero cells (Morrison and Knipe, 1996).
(§1) Compounds to be screened were diluted in PBS supplemented to contain 2% newborn calf serum and 1% glutamine, and added in 100 μL volume to confluent cell monolayers in 24-well cluster plates. Immediately thereafter HSV-1 and HSV-2, diluted in the supplemented PBS medium, were added to the wells in 50 μl volume such that the final concentration of compound was 50 μM and 5 μM and the multiplicity of infection was 0.1. The plates were incubated at 37° C. for 1 hour and then virus-containing inoculum was removed and the wells were washed once in PBS. Compounds, diluted to 50 μM and 5 μM in DMEM supplemented to contain 2% newborn calf serum and 1% each penicillin/streptomycin, were added at 0.5 mL/well. Plates were incubated at 37° C. an additional 23 hr, and then the plates were visually inspected through a phase contrast microscope for cytopathic effect, and for toxic effect. […] The entire contents of each well were collected by scraping. Samples were frozen at −80° C., and then subsequently thawed, sonicated, and infectious virus titer was determined by standard plaque assay on Vero cell monolayers. Because the compounds were dissolved at 10 mM in 100% DMSO, equivalent dilutions of DMSO were added to additional wells as a control for effects of the diluent. Each experiment was repeated once. EC50 values were determined as above except that serial dilutions of the compound to be tested were prepared starting at 50 μM. The inhibitory values were calculated by non-linear curve-fitting in GraphPad Prism.

HSV-2 = assay: Anti-HSV-2 replication assay in Vero cells, titers by plaque assay; format: cell-based, herpes simplex virus 2; settings: for log reduction at 5 µM / log reduction at 50 µM: Human alphaherpesvirus 2, Vero, 24 h; for log reduction at 5 µM: read-out: HSV-2 Log suppression 5 μM; for log reduction at 50 µM: read-out: HSV-2 Log suppression 50 μM
HBV = HBV replication assay in HepDES19 cells; format: cell-based; settings: Hepatitis B virus; HepDES19 cells; read-out: EC50 (HBV assay)
Experimental: HBV replication assay. Inhibition of HBV replication was measured in HepDES19 cells as previously described (Cai, et al., 2014). Cells were seeded into 6-well plates and incubated in DMEM/F12, 10% fetal bovine serum (FBS), 1% penicillin/streptomycin (P/S) with 1 μg/ml tetracycline. Tetracycline was withdrawn after 24 hours. The test compound was applied to duplicate wells 48 hours later in medium containing a final DMSO concentration of 1%, and medium containing the compound was refreshed daily for the following two days. Cells were harvested and non-encapsidated nucleic acids were digested with micrococcal nuclease (New England Biolabs). HBV DNA was purified from capsids using QIAamp Cador Pathogen Mini Kit (Qiagen) with proteinase K incubation overnight at 37° C. TaqMan PCR was performed for 40 cycles at an annealing temperature of 60° C. Primers and probe (IDT Inc.) for the plus-polarity strand were: 5′[…]3′ (SEQ ID NO: 1); 5′[…]3′ (SEQ ID NO: 2); 5′/56-FAM/[…]/ZEN/[…]/3IABkFQ (SEQ ID NO: 3). Primers and probe for the minus-polarity strand were: 5′[…]3′ (SEQ ID NO: 4); 5′[…]3′ (SEQ ID NO: 5); 5′/56-FAM/[…]/ZEN/[…]/3IABkFQ (SEQ ID NO: 6).

[1] = Cytotoxicity reported with the HBV assay (Table 4); format: cell-based; settings: human
Experimental: Qualitative assessments of cytotoxicity were done visually by inspecting the cells in the primary screening assays. For the quantitative assays, cells were plated in 96-well plates at 1.0×10^4 per well. The next day the compounds were added at 0.78 to 100 μM in a final concentration of 1% (v/v) DMSO, and the cells were incubated for 24 hours under conditions identical to those employed for the viral replication inhibition assays. Mitochondrial toxicity was measured by incubating the cells with 0.25 mg/mL thiazolyl blue tetrazolium bromide (MTT, Sigma Aldrich Chemical Co.), the cultures were incubated for 60 min, metabolites were solubilized in acidic isopropanol, and absorbance was read at 570 nm. CC50 values were calculated by non-linear curve fitting using GraphPad Prism.

HSV = assay: Anti-HSV SAR summary, HSV type not separated; format: cell-based, herpes simplex virus; settings: grouped by activity at 50, 5 and 0.5 μM
Experimental: as §1
A series of over 20 synthetic αHTs were synthesized and tested to both confirm the initial SAR, and to provide leads for further optimization pursuits (FIG. 5). […] Specifically, biphenyl-containing molecules #118 and 115 inhibit HSV replication by up to 4 log10 at 200 nM. The increased potency over close analogs #111 and 113 confirmed the importance of added lipophilicity.

[2] = hepatoma cells, read-out: CC50 (HBV assay table)
[3] = 5 μM, moi 0.1, 24 h, vs DMSO, +/− are qualitative, key not given
[4] = 50 μM, moi 0.1, 24 h, vs DMSO, +/−/T are qualitative, key not given

SMILES	log reduction at 5 µM (HSV-1)	log reduction at 50 µM (HSV-1)	log reduction at 5 µM (HSV-2)	log reduction at 50 µM (HSV-2)	log reduction at 1.5 µM (HSV-1)	CC50 at 24 h [1, 2]	further results
CCOC(=O)c1c(C)cc(O)c(=O)c(O)c1O [Compound 270]	5.97	6.47	6.32	6.9	–	–	–
Cc1cc(O)c(=O)c(O)cc1C(=O)c1ccc(-c2ccc3ccccc3c2)cc1 [Compound 258]	–	–	–	–	5.04	28 µM	EC50 (HBV): 8.8 µM
COC(=O)c1cc(O)c(=O)c(O)cc1C [Compound 274]	–	–	–	–	0.59	> 100 µM	–
Cc1cc(O)c(=O)c(O)cc1C(=O)c1cccc(-c2ccccc2)c1 [Compound 255]	–	–	–	–	5.02	–	–
Nc1ccn(C[C@@H](CO)OCP(=O)(O)O)c(=O)n1 [CDV, Cidofovir, reference compound]	–	–	–	–	–	–	log reduction at 5 µM (HSV-1; [3]): 0.77; log reduction at 50 µM (HSV-1; [4]): 2.67; log reduction at 5 µM (HSV-2; [3]): 0.38; log reduction at 50 µM (HSV-2; [4]): 1.19
Cc1cc(O)c(=O)c(O)cc1C(=O)c1ccc(-c2ccncc2)cc1 [Compound 260]	–	–	–	–	0.5	–	–
O=c1c(O)ccc(-c2ccccc2)cc1O [Compound 262]	–	–	–	–	–	96 µM	–
COCc1cc(O)c(=O)c(O)c(C(=O)OC)c1C(=O)OC [Compound 108]	0	–	0	–	–	81 µM	anti-HSV SAR group, in words (HSV): weakest inhibitors
COC(=O)c1cc(O)c(=O)c(OC)cc1C [Compound 273]	5.75	6.05	6.32	6.9	2.12	–	–
O=c1c(O)ccc(-c2ccco2)cc1O [Compound 265]	–	–	–	–	–	40 µM	–
O=c1c(O)ccc(-c2cnc3ccccc3c2)cc1O [Compound 267]	–	–	–	–	–	25 µM	–
O=c1c(O)cccc2cc(O)c(O)c(O)c12 [Compound 195, purpurogallin]	0.17	0.2	-0.04	0.11	–	–	–
COC(=O)c1c(CCl)cc(O)c(=O)c(O)c1C(=O)OC [Compound 107]	–	–	–	–	–	71 µM	–
O=C1OCc2cc(O)c(=O)c(O)c(O)c21 [Compound 271]	0.47	1.87	1.53	2.94	0.21	–	–
Cc1cc(O)c(=O)c(O)cc1-c1ccc(-c2ccc3ccccc3c2)cc1 [Compound 233]	–	–	–	–	2.63	–	–
COC(=O)c1c(C)cc(OC)c(=O)c(O)c1OC [Compound 269]	1.48	3.76	–	4.67	0.24	> 100 µM	HSV-2 Log suppression 1.5 μM (HSV-2; 1.5 μM): 4.04 log10

SMILES	log reduction at 5 µM (HSV-1)	log reduction at 50 µM (HSV-1)	log reduction at 5 µM (HSV-2)	log reduction at 50 µM (HSV-2)	log reduction at 1.5 µM (HSV-1)	CC50 at 24 h [1, 2]	further results
COC(=O)c1c2c(cc(O)c(=O)c1O)COC2=O [Compound 280]	–	–	–	–	–	–	CC50 at 24 h [1]: 32 µM
Cc1cc(O)c(=O)c(O)cc1C(=O)c1cccc(-c2cccc3ccccc23)c1 [Compound 257]	–	–	–	–	4.82	32 µM	EC50 (HBV): 8.3 µM
COC(=O)c1c(C)cc(O)c(=O)c(O)c1C(=O)OC [Compound 106]	-0.07	4.11	-0.55	2.87	–	–	anti-HSV SAR group, in words (HSV): weakest inhibitors; EC50 (HBV): 2.7 µM
Cc1cc(O)c(=O)c(O)cc1-c1cccc(-c2ccc3ccccc3c2)c1 [Compound 232]	–	–	–	–	–	55 µM	EC50 (HBV): 9.6 µM
Cc1cc(O)c(=O)c(O)cc1-c1ccc(-c2cccc3ccccc23)cc1 [Compound 235]	–	–	–	–	–	30 µM	EC50 (HBV): 5.2 µM
O=c1c(O)ccc(-c2ccc(-c3ccccc3)cc2)cc1O [Compound 264]	–	–	–	–	–	28 µM	–
Cc1cc(O)c(=O)c(O)cc1C(=O)c1cccc(-c2ccc3ccccc3c2)c1 [Compound 259]	–	–	–	–	5.05	21 µM	EC50 (HBV): 2.8 µM
O=c1c(O)ccc(Br)cc1O [Compound 261]	–	–	–	–	–	> 100 µM	–
Cc1cc(O)c(=O)c(O)cc1-c1ccc([N+](=O)[O-])cc1 [Compound 112]	0.02	5.25	-0.4	3.2	–	–	anti-HSV SAR group, in words (HSV): weakest inhibitors; EC50 (HBV): 2.5 µM
Cc1cc(O)c(=O)c(O)cc1C(=O)c1ccc(-c2cccc3ccccc23)cc1 [Compound 256]	–	–	–	–	5.18	–	–
Cc1ccc(O)c(=O)c(O)c1 [Compound 210]	4.32	4.56	4.04	5.55	–	–	–
Cc1cc(O)c(=O)c(O)cc1-c1ccc(Cl)cc1 [Compound 144]	-0.34	3.83	0.65	5.18	–	–	anti-HSV SAR group, in words (HSV): weakest inhibitors
Cc1cc(O)c(=O)c(O)cc1-c1cccc(-c2cccc3ccccc23)c1 [Compound 234]	–	–	–	–	2.71	–	–
O=c1c(O)ccc(-c2ccncc2)cc1O [Compound 266]	–	–	–	–	–	32 µM	–
Cc1cc(O)c(=O)c(O)cc1-c1cccc(-c2ccccc2)c1 [Compound 231]	–	–	–	–	–	16 µM	EC50 (HBV): 10 µM
CCOC(=O)c1cc(O)c(=O)c(O)cc1C [Compound 109]	0.21	3.99	-0.22	4.15	–	–	anti-HSV SAR group, in words (HSV): weakest inhibitors
